Here are results for 19 compounds from ChEMBL document CHEMBL1124664, “Synthesis and cytostatic and antiviral activities of 1-beta-D-ribofuranosyl-5-alkylcytosine (5-alkylcytidine) cyclic 3',5'-monophosphates” (1989).

In brackets after ≈: the same amount, converted by molar mass. Activity calls are given as the source filed them. No cut-off for these calls is given here.

One assay has as its system Vaccinia virus. Description: Antiviral activity on the replication of vaccinia virus at 400 ug/mL. The format is functional, organism-based. To be noted: Orthopoxvirus vaccinia.
Assay [1] has as its system L1210. Description: Cytotoxic activity against murine leukemia L1210/deoxycytidine kinase deficient cell lines. In kind it is functional. Particulars: Mus musculus, read-out: ID50 (the source's name).
In another assay the test system is Human alphaherpesvirus 1. Briefly: Antiviral activity on the replication of HSV-1 at 400 ug/mL. The format is functional, organism-based.
The test system of assay [2] is L1210. Description: Cytotoxic activity against murine leukemia L1210 cells. To be noted: Mus musculus, read-out: ID50 (the source's name). The format is functional.
Another assay deals with Human alphaherpesvirus 2. Briefly: Antiviral activity on the replication of HSV-2 at 400 ug/mL. In kind it is functional, organism-based.
Assay [3] relates to Vesicular stomatitis virus. Description: Antiviral activity on the replication of vesicular stomatitis virus at 400 ug/mL. The format is functional, organism-based.
The species named for the next assay is Oryctolagus cuniculus. Description: Inhibition of rabbit skeletal muscle protein kinase I. In kind it is functional.
The subject of assay [4] is L1210/ara C. Briefly: Inhibition of L1210/arac cell proliferation at 200 ug/mL; IA means Inactive. In kind it is functional, cell-based. To be noted: Mus musculus.
Assay [5] relates to L1210. Briefly: Inhibition of L1210/0 cell proliferation. Particulars: Mus musculus, read-out: ID50 (the source's name). The format is functional.
Assay [6] relates to L1210/ara C. Description: Inhibition of L1210/ara C cell proliferation. The format is functional. Particulars: Mus musculus, read-out: ID50 (the source's name).

On to `CCCCCCc1cn([C@@H]2O[C@@H]3COP(=O)(O)O[C@H]3[C@H]2O)c(=O)nc1N.N`, for which the outcome (in the assay on Vaccinia virus; in the assay with Human alphaherpesvirus 1; with Human alphaherpesvirus 2; in assay [3]) was inactive. The IC50 with L1210 [1] and in the assay with L1210 [2] was greater than 200 µg/mL each time. This compound had a Ka in the assay filed under Oryctolagus cuniculus of 0.8 µM.

With `CCCCc1cn([C@@H]2O[C@@H]3COP(=O)(O)O[C@H]3[C@H]2O)c(=O)nc1N.N`, the outcome (in the assay on Vaccinia virus; in the assay on Human alphaherpesvirus 1; in the assay with Human alphaherpesvirus 2; in [3]) was inactive. The IC50 in the assay with L1210 [1] and in the assay with L1210 [2] was greater than 200 µg/mL throughout. For the same compound, the Ka in the assay filed under Oryctolagus cuniculus is 0.8 µM.

Take `CCc1cn(C2O[C@H](COP(=O)(O)O)[C@@H](O)[C@H]2O)c(=O)nc1N` (stereo partly specified): the outcome (in the assay with Vaccinia virus; with Human alphaherpesvirus 1; in the assay with Human alphaherpesvirus 2; in [3]) was inactive.

Take `Cc1cn([C@@H]2O[C@H](CO)[C@@H](O)[C@H]2O)c(=O)nc1N`: the result with L1210/ara C [4] was inactive. The IC50 with L1210 [5] was determined as 94 µg/mL (≈ 365 µM).

Regarding `CCCCCCc1cn(C2O[C@H](COP(=O)(O)O)[C@@H](O)[C@H]2O)c(=O)nc1N` (stereo partly specified), the outcome (with Vaccinia virus; with Human alphaherpesvirus 1; in the assay on Human alphaherpesvirus 2; in assay [3]) was inactive.

With `CCCc1cn(C2O[C@H](COP(=O)(O)O)[C@@H](O)[C@H]2O)c(=O)nc1N` (stereo partly specified), the result (in the assay on Vaccinia virus; in the assay with Human alphaherpesvirus 1; in the assay with Human alphaherpesvirus 2; in assay [3]) was inactive.

As for `CCc1cn([C@@H]2O[C@@H]3COP(=O)(O)O[C@H]3[C@H]2O)c(=O)nc1N.N`, the outcome (with Vaccinia virus; with Human alphaherpesvirus 1; in the assay on Human alphaherpesvirus 2; in assay [3]) was inactive. The IC50 with L1210 [1] and in the assay on L1210 [2] was greater than 200 µg/mL each time. The compound also registered a Ka in the assay filed under Oryctolagus cuniculus of 0.8 µM.

As for `Nc1ccn([C@@H]2O[C@@H]3COP(=O)(O)O[C@H]3[C@H]2O)c(=O)n1`, in the assay on L1210 [5], the IC50 is 43 µg/mL (≈ 141 µM). Also, the Ka in the assay listed under Oryctolagus cuniculus was determined as 0.03 µM.

Turning to `CCCCCc1cn(C2O[C@H](COP(=O)(O)O)[C@@H](O)[C@H]2O)c(=O)nc1N` (stereo partly specified), the outcome (with Vaccinia virus; in the assay on Human alphaherpesvirus 1; in the assay with Human alphaherpesvirus 2; in assay [3]) was inactive.

For `CCCCc1cn(C2O[C@H](COP(=O)(O)O)[C@@H](O)[C@H]2O)c(=O)nc1N` (stereo partly specified), the result (in the assay on Vaccinia virus; in the assay with Human alphaherpesvirus 1; in the assay on Human alphaherpesvirus 2; in [3]) was inactive.

On to `CC(C)c1cn(C2O[C@H](COP(=O)(O)O)[C@@H](O)[C@H]2O)c(=O)nc1N` (stereo partly specified), for which the outcome (in the assay on Vaccinia virus; with Human alphaherpesvirus 1; in the assay on Human alphaherpesvirus 2; in assay [3]) was inactive.

With `CC(C)c1cn([C@@H]2O[C@H](CO)[C@@H](O)[C@H]2O)c(=O)nc1N`, in the assay with L1210/ara C [4], the result was inactive. The IC50 with L1210 [5] amounted to 35 µg/mL (≈ 123 µM); with L1210/ara C [6] it was 39 µg/mL (≈ 137 µM).

With `CCCCCCCCc1cn(C2O[C@H](COP(=O)(O)O)[C@@H](O)[C@H]2O)c(=O)nc1N` (stereo partly specified), the outcome (in the assay with Vaccinia virus; with Human alphaherpesvirus 1; in the assay on Human alphaherpesvirus 2; in [3]) was inactive.

In the case of `CCCCCCCCc1cnc(O)nc1N`, the result in the assay with L1210/ara C [4] was inactive. Also, in the assay with L1210 [5], the IC50 was 190 µg/mL (≈ 851 µM).

Regarding `CC(C)c1cn([C@@H]2O[C@@H]3COP(=O)(O)O[C@H]3[C@H]2O)c(=O)nc1N.N`, the outcome (in the assay on Vaccinia virus; in the assay on Human alphaherpesvirus 1; in the assay on Human alphaherpesvirus 2; in [3]) was inactive. The IC50 in the assay with L1210 [1] and with L1210 [2] was greater than 200 µg/mL each time. Further, the Ka in the assay listed under Oryctolagus cuniculus was determined as 0.8 µM.

Consider `Cc1cn([C@@H]2O[C@H](COP(=O)(O)O)[C@@H](O)[C@H]2O)c(=O)nc1N`, for which the result (with Vaccinia virus; with L1210/ara C [4]; with Human alphaherpesvirus 1; in the assay on Human alphaherpesvirus 2; in assay [3]) was inactive. The IC50 in the assay with L1210 [5] worked out at 162 µg/mL (≈ 480 µM).

Consider `Cc1cn([C@@H]2O[C@@H]3COP(=O)(O)O[C@H]3[C@H]2O)c(=O)nc1N.N`, for which the result (in the assay on Vaccinia virus; in the assay with Human alphaherpesvirus 1; in the assay with Human alphaherpesvirus 2; in assay [3]) was inactive. The IC50 with L1210 [1] and in the assay on L1210 [2] was greater than 200 µg/mL throughout.

In the case of `Nc1ccn([C@@H]2O[C@H](COP(=O)(O)O)[C@@H](O)[C@H]2O)c(=O)n1`, the outcome with L1210/ara C [4] was inactive. Moreover, the IC50 in the assay with L1210 [5] is 43 µg/mL (≈ 133 µM).

With `CCCCCCCCc1cn([C@@H]2O[C@@H]3COP(=O)(O)O[C@H]3[C@H]2O)c(=O)nc1N.N`, the result (in the assay with Vaccinia virus; in the assay with Human alphaherpesvirus 1; in the assay with Human alphaherpesvirus 2; in [3]) was inactive. Further, the IC50 in the assay with L1210 [1] and in the assay with L1210 [2] was greater than 200 µg/mL each time. Further, the Ka in the assay listed under Oryctolagus cuniculus stood at 0.8 µM.
